Assay: molar heat capacity at constant volume; xn = mol fraction of the nth substance listed
Details: x1 = 0.2607

N [ammonia] + O
Details | molar heat capacity at constant volume [J/K/mol]
508.07 K, Fluid (supercritical or subcritical phases), Mass density=671.23 kg/m3, isochoric heat capacity | 68.25
508.07 K, Liquid, Isochoric heat capacity | 68.25
508.26 K, Fluid (supercritical or subcritical phases), Mass density=671.23 kg/m3, isochoric heat capacity | 68.14
508.36 K, Fluid (supercritical or subcritical phases), Mass density=671.23 kg/m3, isochoric heat capacity | 68.37
508.45 K, Fluid (supercritical or subcritical phases), Mass density=671.23 kg/m3, isochoric heat capacity | 67.54
508.54 K, Fluid (supercritical or subcritical phases), Mass density=671.23 kg/m3, isochoric heat capacity | 67.61
508.64 K, Fluid (supercritical or subcritical phases), Mass density=671.23 kg/m3, isochoric heat capacity | 67.18
509.01 K, Fluid (supercritical or subcritical phases), Mass density=671.23 kg/m3, isochoric heat capacity | 68.48
509.11 K, Fluid (supercritical or subcritical phases), Mass density=671.23 kg/m3, isochoric heat capacity | 67.7
509.3 K, Fluid (supercritical or subcritical phases), Mass density=671.23 kg/m3, isochoric heat capacity | 67.89
509.39 K, Fluid (supercritical or subcritical phases), Mass density=671.23 kg/m3, isochoric heat capacity | 66.74
509.67 K, Fluid (supercritical or subcritical phases), Mass density=671.23 kg/m3, isochoric heat capacity | 67.09
513.42 K, Fluid (supercritical or subcritical phases), Mass density=671.23 kg/m3, isochoric heat capacity | 65.53
513.61 K, Fluid (supercritical or subcritical phases), Mass density=671.23 kg/m3, isochoric heat capacity | 65.05
513.8 K, Fluid (supercritical or subcritical phases), Mass density=671.23 kg/m3, isochoric heat capacity | 65.6
516.88 K, Fluid (supercritical or subcritical phases), Mass density=671.23 kg/m3, isochoric heat capacity | 63.54
517.07 K, Fluid (supercritical or subcritical phases), Mass density=671.23 kg/m3, isochoric heat capacity | 63.15
517.26 K, Fluid (supercritical or subcritical phases), Mass density=671.23 kg/m3, isochoric heat capacity | 63.06
517.44 K, Fluid (supercritical or subcritical phases), Mass density=671.23 kg/m3, isochoric heat capacity | 63.27
517.63 K, Fluid (supercritical or subcritical phases), Mass density=671.23 kg/m3, isochoric heat capacity | 62.44
517.82 K, Fluid (supercritical or subcritical phases), Mass density=671.23 kg/m3, isochoric heat capacity | 63.49
519.77 K, Fluid (supercritical or subcritical phases), Mass density=649.65 kg/m3, isochoric heat capacity | 68.81
519.77 K, Liquid, Isochoric heat capacity | 68.81
519.87 K, Fluid (supercritical or subcritical phases), Mass density=649.65 kg/m3, isochoric heat capacity | 68.23
520.05 K, Fluid (supercritical or subcritical phases), Mass density=649.65 kg/m3, isochoric heat capacity | 65.99
520.14 K, Fluid (supercritical or subcritical phases), Mass density=649.65 kg/m3, isochoric heat capacity | 66.91
520.24 K, Fluid (supercritical or subcritical phases), Mass density=649.65 kg/m3, isochoric heat capacity | 67.27
520.33 K, Fluid (supercritical or subcritical phases), Mass density=649.65 kg/m3, isochoric heat capacity | 64.87
520.42 K, Fluid (supercritical or subcritical phases), Mass density=649.65 kg/m3, isochoric heat capacity | 66.63
520.52 K, Fluid (supercritical or subcritical phases), Mass density=649.65 kg/m3, isochoric heat capacity | 67.09
520.79 K, Fluid (supercritical or subcritical phases), Mass density=649.65 kg/m3, isochoric heat capacity | 65.87
520.98 K, Fluid (supercritical or subcritical phases), Mass density=649.65 kg/m3, isochoric heat capacity | 65.39
521.17 K, Fluid (supercritical or subcritical phases), Mass density=649.65 kg/m3, isochoric heat capacity | 66.9
521.35 K, Fluid (supercritical or subcritical phases), Mass density=649.65 kg/m3, isochoric heat capacity | 66.72
521.45 K, Fluid (supercritical or subcritical phases), Mass density=649.65 kg/m3, isochoric heat capacity | 66.06
521.54 K, Fluid (supercritical or subcritical phases), Mass density=649.65 kg/m3, isochoric heat capacity | 65.81
526.45 K, Fluid (supercritical or subcritical phases), Mass density=649.65 kg/m3, isochoric heat capacity | 63.84
526.64 K, Fluid (supercritical or subcritical phases), Mass density=649.65 kg/m3, isochoric heat capacity | 63.74
526.82 K, Fluid (supercritical or subcritical phases), Mass density=649.65 kg/m3, isochoric heat capacity | 63.43
527.01 K, Fluid (supercritical or subcritical phases), Mass density=649.65 kg/m3, isochoric heat capacity | 63.65
527.19 K, Fluid (supercritical or subcritical phases), Mass density=649.65 kg/m3, isochoric heat capacity | 62.83
527.28 K, Fluid (supercritical or subcritical phases), Mass density=649.65 kg/m3, isochoric heat capacity | 63.36
545.62 K, Fluid (supercritical or subcritical phases), Mass density=594.32 kg/m3, isochoric heat capacity | 71.3
545.62 K, Liquid, Isochoric heat capacity | 71.3
545.71 K, Fluid (supercritical or subcritical phases), Mass density=594.32 kg/m3, isochoric heat capacity | 69.65
545.8 K, Fluid (supercritical or subcritical phases), Mass density=594.32 kg/m3, isochoric heat capacity | 69.15
546.08 K, Fluid (supercritical or subcritical phases), Mass density=594.32 kg/m3, isochoric heat capacity | 68.46
546.17 K, Fluid (supercritical or subcritical phases), Mass density=594.32 kg/m3, isochoric heat capacity | 67.48
546.35 K, Fluid (supercritical or subcritical phases), Mass density=594.32 kg/m3, isochoric heat capacity | 68.48
546.62 K, Fluid (supercritical or subcritical phases), Mass density=594.32 kg/m3, isochoric heat capacity | 67.15
546.71 K, Fluid (supercritical or subcritical phases), Mass density=594.32 kg/m3, isochoric heat capacity | 66.47
547.07 K, Fluid (supercritical or subcritical phases), Mass density=594.32 kg/m3, isochoric heat capacity | 65.62
547.17 K, Fluid (supercritical or subcritical phases), Mass density=594.32 kg/m3, isochoric heat capacity | 66.33
547.5 K, Fluid (supercritical or subcritical phases), Mass density=594.32 kg/m3, isochoric heat capacity | 65.53
547.79 K, Fluid (supercritical or subcritical phases), Mass density=594.32 kg/m3, isochoric heat capacity | 65.46
547.98 K, Fluid (supercritical or subcritical phases), Mass density=594.32 kg/m3, isochoric heat capacity | 63.91
549.8 K, Fluid (supercritical or subcritical phases), Mass density=594.32 kg/m3, isochoric heat capacity | 63.77
549.98 K, Fluid (supercritical or subcritical phases), Mass density=594.32 kg/m3, isochoric heat capacity | 62.97
550.07 K, Fluid (supercritical or subcritical phases), Mass density=594.32 kg/m3, isochoric heat capacity | 63.74
550.16 K, Fluid (supercritical or subcritical phases), Mass density=594.32 kg/m3, isochoric heat capacity | 63.45
550.34 K, Fluid (supercritical or subcritical phases), Mass density=594.32 kg/m3, isochoric heat capacity | 63.56
561.03 K, Fluid (supercritical or subcritical phases), Mass density=552.58 kg/m3, isochoric heat capacity | 73.2
561.03 K, Liquid, Isochoric heat capacity | 73.2
561.19 K, Fluid (supercritical or subcritical phases), Mass density=552.58 kg/m3, isochoric heat capacity | 70.73
561.25 K, Fluid (supercritical or subcritical phases), Mass density=552.58 kg/m3, isochoric heat capacity | 66.7
561.34 K, Fluid (supercritical or subcritical phases), Mass density=552.58 kg/m3, isochoric heat capacity | 64.8
561.52 K, Fluid (supercritical or subcritical phases), Mass density=552.58 kg/m3, isochoric heat capacity | 64.06
561.61 K, Fluid (supercritical or subcritical phases), Mass density=552.58 kg/m3, isochoric heat capacity | 62.44
561.7 K, Fluid (supercritical or subcritical phases), Mass density=552.58 kg/m3, isochoric heat capacity | 64.39
561.88 K, Fluid (supercritical or subcritical phases), Mass density=552.58 kg/m3, isochoric heat capacity | 63.24
561.97 K, Fluid (supercritical or subcritical phases), Mass density=552.58 kg/m3, isochoric heat capacity | 62.79
562.06 K, Fluid (supercritical or subcritical phases), Mass density=552.58 kg/m3, isochoric heat capacity | 61.43
565.36 K, Liquid, Isochoric heat capacity | 73.52
580.18 K, Fluid (supercritical or subcritical phases), Mass density=476.25 kg/m3, isochoric heat capacity | 77.25
580.18 K, Liquid, Isochoric heat capacity | 77.25
580.21 K, Fluid (supercritical or subcritical phases), Mass density=476.25 kg/m3, isochoric heat capacity | 73.61
580.3 K, Fluid (supercritical or subcritical phases), Mass density=476.25 kg/m3, isochoric heat capacity | 69.74
580.56 K, Fluid (supercritical or subcritical phases), Mass density=476.25 kg/m3, isochoric heat capacity | 68.42
580.74 K, Fluid (supercritical or subcritical phases), Mass density=476.25 kg/m3, isochoric heat capacity | 68.46
580.92 K, Fluid (supercritical or subcritical phases), Mass density=476.25 kg/m3, isochoric heat capacity | 67.84
581.01 K, Fluid (supercritical or subcritical phases), Mass density=476.25 kg/m3, isochoric heat capacity | 68.48

Source: the NIST ThermoML archive (doi:10.1007/s10765-009-0602-6)
